In publication PMC6628435, “Chemical Synthesis, Proper Folding, Nav Channel Selectivity Profile and Analgesic Properties of the Spider Peptide Phlotoxin 1” (Toxins, 2019):
Bridge positions count the residues as written; N and C are the ends. Peptide text beside a SMILES is read from it.

Columns and labels:
[1] = biological target: T1, Nav1.7/β1 (Rattus norvegicus, UniProt O08562); test: Two-electrode voltage-clamp on Xenopus laevis oocytes expressing Nav1.7/β1; assay type: cell-based
T1 construct: expressed in transfected cells; host or cells: Xenopus laevis oocytes injected with cRNA
T1 sequence (O08562 whole entry): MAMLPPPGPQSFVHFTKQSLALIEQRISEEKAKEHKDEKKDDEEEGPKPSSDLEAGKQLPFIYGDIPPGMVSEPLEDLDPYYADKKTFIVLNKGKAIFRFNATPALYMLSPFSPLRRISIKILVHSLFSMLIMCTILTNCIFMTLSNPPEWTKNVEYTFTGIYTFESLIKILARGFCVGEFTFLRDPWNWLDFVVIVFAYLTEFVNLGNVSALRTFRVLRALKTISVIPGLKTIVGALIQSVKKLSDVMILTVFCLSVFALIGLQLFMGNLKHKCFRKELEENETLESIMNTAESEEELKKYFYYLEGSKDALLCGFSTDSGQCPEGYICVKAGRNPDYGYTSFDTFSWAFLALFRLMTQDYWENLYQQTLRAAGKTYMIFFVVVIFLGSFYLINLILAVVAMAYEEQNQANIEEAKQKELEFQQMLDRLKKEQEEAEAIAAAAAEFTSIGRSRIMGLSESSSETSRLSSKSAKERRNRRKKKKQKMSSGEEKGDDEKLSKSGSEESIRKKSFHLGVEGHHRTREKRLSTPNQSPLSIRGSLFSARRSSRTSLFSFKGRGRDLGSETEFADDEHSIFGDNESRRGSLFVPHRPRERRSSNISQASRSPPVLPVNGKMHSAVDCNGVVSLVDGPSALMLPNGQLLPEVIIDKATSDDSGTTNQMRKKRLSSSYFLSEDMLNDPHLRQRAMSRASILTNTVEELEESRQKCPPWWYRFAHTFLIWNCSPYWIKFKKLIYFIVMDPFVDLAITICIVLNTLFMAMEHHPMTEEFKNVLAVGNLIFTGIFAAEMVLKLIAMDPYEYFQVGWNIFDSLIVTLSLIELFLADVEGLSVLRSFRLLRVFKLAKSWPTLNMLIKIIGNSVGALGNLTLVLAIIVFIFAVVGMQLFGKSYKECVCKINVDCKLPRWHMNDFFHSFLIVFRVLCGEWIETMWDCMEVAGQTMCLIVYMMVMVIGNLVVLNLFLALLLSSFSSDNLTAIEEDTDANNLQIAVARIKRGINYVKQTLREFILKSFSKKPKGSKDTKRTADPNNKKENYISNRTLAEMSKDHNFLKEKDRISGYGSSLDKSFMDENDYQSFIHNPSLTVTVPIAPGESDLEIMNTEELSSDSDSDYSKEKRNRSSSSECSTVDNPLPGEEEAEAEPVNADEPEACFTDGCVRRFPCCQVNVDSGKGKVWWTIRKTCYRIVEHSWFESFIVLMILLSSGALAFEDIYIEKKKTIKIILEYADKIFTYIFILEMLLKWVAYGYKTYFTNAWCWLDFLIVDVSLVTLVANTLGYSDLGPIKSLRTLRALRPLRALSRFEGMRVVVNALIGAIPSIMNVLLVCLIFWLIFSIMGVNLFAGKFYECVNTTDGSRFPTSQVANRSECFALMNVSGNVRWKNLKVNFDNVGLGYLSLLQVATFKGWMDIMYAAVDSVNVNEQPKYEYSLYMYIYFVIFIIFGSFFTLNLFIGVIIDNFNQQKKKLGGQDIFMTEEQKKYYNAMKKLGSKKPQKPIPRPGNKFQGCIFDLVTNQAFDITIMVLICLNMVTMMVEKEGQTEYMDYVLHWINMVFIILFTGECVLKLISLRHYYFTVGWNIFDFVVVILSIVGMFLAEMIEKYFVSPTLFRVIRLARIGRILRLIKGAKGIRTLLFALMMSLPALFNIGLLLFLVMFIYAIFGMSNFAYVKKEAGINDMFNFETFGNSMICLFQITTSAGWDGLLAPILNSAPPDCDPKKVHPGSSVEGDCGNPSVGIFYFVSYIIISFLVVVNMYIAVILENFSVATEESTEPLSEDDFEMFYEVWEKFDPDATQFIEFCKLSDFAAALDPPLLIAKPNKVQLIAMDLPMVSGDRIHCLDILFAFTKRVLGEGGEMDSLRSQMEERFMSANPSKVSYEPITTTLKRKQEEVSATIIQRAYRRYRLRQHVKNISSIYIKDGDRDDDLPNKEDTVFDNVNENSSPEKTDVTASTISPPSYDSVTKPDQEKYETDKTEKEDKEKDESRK
T1 sequence (Q00954 19-218 partner): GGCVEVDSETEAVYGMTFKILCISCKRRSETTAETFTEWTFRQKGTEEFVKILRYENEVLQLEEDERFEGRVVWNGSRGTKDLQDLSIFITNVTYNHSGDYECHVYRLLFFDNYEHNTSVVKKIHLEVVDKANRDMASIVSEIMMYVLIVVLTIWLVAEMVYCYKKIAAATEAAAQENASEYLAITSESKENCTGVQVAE

[2] = system: Nav1.2/β1; test: Two-electrode voltage-clamp on Xenopus laevis oocytes expressing Nav1.2/β1; assay type: cell-based; details: 1 µM; voltage of maximum sodium influx, holding −90 mV; oocytes TEVC; n ≥ 3
Text: (§1) Using the two-electrode voltage-clamp technique on Xenopus laevis oocytes, the effect of PhlTx1 was also compared on eight different cloned vertebrate Nav channels co-expressed with the β1 subunit (Nav1.1-1.8/β1) and on the neuronal insect Nav channel, para, co-expressed with the tipE subunit (Figure 3 and Figure 4). […] Normalized current-voltage relationships (I-V curve) of Nav1.2/β1 and Nav1.3/β1 channels seemed to be shifted towards more negative potentials when PhlTx1 was applied, but shifts were not statistically significant […] (Figure 4). The activation phase of the other studied Nav channel subtypes was not affected. No obvious alteration in channel availability was observed, except a 5-mV negative shift for Nav1.3/β1, although that was also non-significant (p > 0.05).
(§2) Figure 4 1 µM of PhlTx1 was tested on Nav1.1/β1, Nav1.2/β1, Nav1.3/β1, Nav1.4/β1, Nav1.5/β1, Nav1.6/β1, Nav1.8/β1 and para/tipE (n ≥ 3). Left column: current traces were evoked by a 50-ms depolarization to the voltage of maximum sodium influx, depending on the Nav studied, from a holding potential of −90 mV. At 1 µM PhlTx1, all studied Nav channels, except Nav1.4/β1, were blocked for about 10% (no toxin: *). The current of Nav1.4/β1 was reduced for about 35 ± 5%. Middle column: normalized I-V curves reveal no significant shift of the activation voltage (p > 0.05). […]

[3] = system: Nav1.3/β1; test: Two-electrode voltage-clamp on Xenopus laevis oocytes expressing Nav1.3/β1; assay type: cell-based
Text: as §1, §2

[4] = system: para/tipE; test: Two-electrode voltage-clamp on Xenopus laevis oocytes expressing insect Nav channel para/tipE; assay type: cell-based, Fruit fly; details: 1 µM; voltage of maximum sodium influx, holding −90 mV; oocytes TEVC; n ≥ 3
Text: as §1, §2

[5] = biological target: T2, hNav1.4 (Homo sapiens, UniProt P35499); test: Automated patch-clamp dose-response on hNav1.4 expressed in CHO cells; assay type: cell-based; details: 4 to 13 cells per concentration, read-out: calculated IC50
T2 construct: expressed in transfected cells; host or cells: CHO cells
T2 sequence (P35499 whole entry): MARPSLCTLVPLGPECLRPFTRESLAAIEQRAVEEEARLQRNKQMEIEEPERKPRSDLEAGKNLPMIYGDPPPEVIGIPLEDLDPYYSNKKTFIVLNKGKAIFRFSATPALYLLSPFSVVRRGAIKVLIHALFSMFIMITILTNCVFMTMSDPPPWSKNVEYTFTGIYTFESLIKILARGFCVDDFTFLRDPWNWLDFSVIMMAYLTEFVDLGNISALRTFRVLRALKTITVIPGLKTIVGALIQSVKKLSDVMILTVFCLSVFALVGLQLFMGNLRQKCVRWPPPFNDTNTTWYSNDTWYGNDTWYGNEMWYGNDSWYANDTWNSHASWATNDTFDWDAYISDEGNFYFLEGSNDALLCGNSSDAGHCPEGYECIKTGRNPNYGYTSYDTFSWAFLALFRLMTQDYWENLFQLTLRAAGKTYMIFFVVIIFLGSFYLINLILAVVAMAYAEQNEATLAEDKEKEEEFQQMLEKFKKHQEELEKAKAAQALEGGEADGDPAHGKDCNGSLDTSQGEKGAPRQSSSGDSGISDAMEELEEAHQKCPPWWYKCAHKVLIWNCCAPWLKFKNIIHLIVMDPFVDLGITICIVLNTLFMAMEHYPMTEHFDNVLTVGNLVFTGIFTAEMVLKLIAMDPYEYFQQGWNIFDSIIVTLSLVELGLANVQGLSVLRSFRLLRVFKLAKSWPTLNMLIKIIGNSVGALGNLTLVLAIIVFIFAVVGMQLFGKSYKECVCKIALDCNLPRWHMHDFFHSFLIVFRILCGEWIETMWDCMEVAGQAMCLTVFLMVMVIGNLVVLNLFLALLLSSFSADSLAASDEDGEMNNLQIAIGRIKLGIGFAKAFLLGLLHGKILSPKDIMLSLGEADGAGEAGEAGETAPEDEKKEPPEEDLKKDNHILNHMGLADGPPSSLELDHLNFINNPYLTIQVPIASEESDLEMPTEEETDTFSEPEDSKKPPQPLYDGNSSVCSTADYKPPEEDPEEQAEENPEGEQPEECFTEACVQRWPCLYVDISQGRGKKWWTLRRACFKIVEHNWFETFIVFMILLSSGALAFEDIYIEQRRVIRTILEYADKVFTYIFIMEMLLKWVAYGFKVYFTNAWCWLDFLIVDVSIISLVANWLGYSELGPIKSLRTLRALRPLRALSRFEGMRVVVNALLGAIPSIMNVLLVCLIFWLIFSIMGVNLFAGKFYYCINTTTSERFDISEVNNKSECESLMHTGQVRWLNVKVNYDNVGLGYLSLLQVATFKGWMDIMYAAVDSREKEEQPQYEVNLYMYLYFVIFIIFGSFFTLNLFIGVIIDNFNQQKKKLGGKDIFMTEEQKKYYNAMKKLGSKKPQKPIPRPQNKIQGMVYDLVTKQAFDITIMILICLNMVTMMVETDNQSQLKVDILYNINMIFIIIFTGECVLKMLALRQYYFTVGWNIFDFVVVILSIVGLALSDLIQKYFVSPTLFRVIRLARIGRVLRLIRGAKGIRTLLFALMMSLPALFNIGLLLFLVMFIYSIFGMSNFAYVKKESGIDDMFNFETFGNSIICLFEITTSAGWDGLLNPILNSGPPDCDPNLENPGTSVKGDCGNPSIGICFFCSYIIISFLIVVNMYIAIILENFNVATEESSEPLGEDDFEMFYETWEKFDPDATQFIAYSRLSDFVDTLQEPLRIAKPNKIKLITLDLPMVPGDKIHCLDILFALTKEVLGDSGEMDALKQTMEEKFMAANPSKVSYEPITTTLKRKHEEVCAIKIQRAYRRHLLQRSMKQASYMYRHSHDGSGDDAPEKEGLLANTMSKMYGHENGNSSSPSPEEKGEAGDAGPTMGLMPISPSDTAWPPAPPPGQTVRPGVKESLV

[6] = mice; PhlTx1 100 pmoles or morphine 0.25 mg in 10 µL

SMILES: CC(C)C[C@@H]1NC(=O)[C@@H](NC(=O)[C@H](C)N)CSSC[C@@H]2NC(=O)[C@@H]3CSSC[C@@H](C(=O)N[C@@H](CCCNC(=N)N)C(=O)N[C@@H](Cc4ccc(O)cc4)C(=O)N[C@@H](CCCCN)C(=O)N[C@@H](CC(C)C)C(=O)N[C@@H](Cc4ccccc4)C(=O)O)NC(=O)[C@H](Cc4c[nH]c5ccccc45)NC(=O)[C@@H]4CCCN4C(=O)[C@H](Cc4ccc(O)cc4)NC(=O)[C@H](CCCCN)NC(=O)[C@H](Cc4c[nH]c5ccccc45)NC(=O)[C@H](CCC(=O)O)NC(=O)[C@H](CSSC[C@H](NC(=O)[C@H](CO)NC(=O)[C@H](CC(=O)O)NC(=O)[C@H](Cc4c[nH]c5ccccc45)NC(=O)[C@H](CCC(N)=O)NC(=O)CNC1=O)C(=O)N[C@@H](CC(=O)O)C(=O)N1CCC[C@H]1C(=O)N[C@@H](CCCCN)C(=O)N[C@@H](C)C(=O)N[C@@H](CO)C(=O)N[C@@H](CCCCN)C(=O)N3)NC(=O)[C@H](C)NC(=O)[C@H](Cc1ccc(O)cc1)NC(=O)[C@H](CC(N)=O)NC(=O)[C@@H]1CCCN1C2=O [PhlTx1, Phlotoxin-1] (H-ACLGQWDSCDPKASKCCPNYACEWKYPWCRYKLF-OH; disulfide 2-17, 9-22, 16-29; N-terminus and C-terminus assumed)
- inhibition at 1 µM ([1]; 1 µM, holding −90 mV, oocytes TEVC, clone rPN1, read-out: inhibition of inward currents): 90 ± 7%
- IC50 ([1]; Xenopus laevis oocytes, stimulus frequency 0.3 Hz, Hill equation fit, n = 4, 0.1% BSA): 260 ± 46 nM
- Hill coefficient ([1]; Xenopus laevis oocytes, stimulus frequency 0.3 Hz, n = 4): 1.3
- block of sodium current [2]: about 10%
- negative shift in channel availability ([3]; 1 µM PhlTx1, non-significant (p > 0.05)): 5 mV
- block of sodium current ([3]; 1 µM, voltage of maximum sodium influx, holding −90 mV, oocytes TEVC, n ≥ 3): about 10%
- block of sodium current [4]: about 10%
- IC50 [5]: > 3000 nM
- neurotoxicity after intrathecal injection [6]: no neurotoxicity was observed
